The record followed here is patent publication US20250295631A1, “NOVEL TREATMENT” (University of Liverpool, priority 2022, published 2025).

“Also recorded” adds a separate entry of the source.

Series [1] relates to inflammatory cytokines in rat aqueous humour. The conditions noted are these: in vivo. Here is the method:
(§1) Male Wistar rats (300 g) and mixed sex New Zealand rabbits (1.5-3 kg), both specific-antigen free, were ordered from Charles River UK and ENVIGO, respectively. They were allowed a minimum of 7 days acclimatisation prior to procedures. Animals were anaesthetised and proxymetacaine hydrochloride 0.5% w/v was applied to the corneas. For the rats, a 2 cm section of silicone tubing was placed on the cornea whereas for the rabbits the suction ring (as above) was placed on the cornea, and 200 μl of the sterile filtered 0.2 M BS^3 solution was instilled for 15 mins. Following this, eyes were rinsed with saline. Animals were provided with antibiotic/steroid drops (Tobradex, Novartis Pharmaceuticals UK Ltd, London, UK) daily and were monitored for any signs for distress or ocular discomfort.
The animals were euthanised at pre-determined time points (rats at 24 hours and 7 days; rabbits at 3 days post-treatment). Aqueous humour was collected. Rat ocular tissue was collected and fixed in 10% paraformaldehyde for histology. Rabbit the eyes enucleated and prepared for mechanical testing which was conducted the following day and the remaining cornea was fixed. Ocular tissue was also fixed in 10% paraformaldehyde.
(§2) Statistical analyses were performed with Prism 9.3.1 (GraphPad Software, San Diego, CA, USA). In vivo data were compared by paired t-tests to contralateral control eyes.

Series [2] deals with rabbit corneas. Briefly: Rabbit corneal tensile measurements after in vivo treatment. Also on record: species or system New Zealand rabbits. Conditions: for Percentage Change in Modulus After 3 Days Compared to Control / Percentage Change in Modulus Compared to Control: 0.2M BS^3 for 15 mins; for Percentage Change in Modulus After 3 Days Compared to Control: 3 days after treatment; for Percentage Change in Modulus Compared to Control: 28 days after treatment. How it is done: The tissue strip was mounted in the grips of a Univert tensile tester (CellScale, Ontario, Canada) with a 50 N load cell. Tissue was stretched at a rate of 125 μm/s until failure. Data was captured at 1 Hz. Stress-strain curves were plotted and the elastic modulus was determined at a range of strains: 5-10%, 10-15%, 20-25% and 30-35%. Data were trimmed to 3% from the strain at ultimate tensile strain and 6 term polynomial equations we determined from each curve. […] These polynomials represent the stress-stain response of each cornea and were used to create an average stress-strain curve for the samples.
as §1
Aqueous humour was collected. Rat ocular tissue was collected and fixed in 10% paraformaldehyde for histology. Rabbit the eyes enucleated and prepared for mechanical testing which was conducted the following day and the remaining cornea was fixed. Ocular tissue was also fixed in 10% paraformaldehyde.
Rabbit eyes were collected immediately after culling and were stored in a petri dish containing the PBS antibiotic/antimycotic solution, corneas facing up, at 4° C. overnight. Mechanical testing was conducted using the protocol above for ex vivo porcine tissue.
as §2

As to bis(sulfosuccinimidyl)suberate [BS3], the “change in IL-2 in aqueous humour, treated vs control eyes” value in series [1] is reported as −0.76 fold. Besides, the “change in IL-4 in aqueous humour, treated vs control eyes” value in series [1] was −0.63 fold. The “reductions in IL-2 and IL-4 in aqueous humour” value in series [1] is reported as “resolved by day 7”. Besides, the “Percentage Change in Modulus After 3 Days Compared to Control” value in series [2] (strain range 5-10%) was −6%; in series [2] (strain range 10-15%) it was 15%; in series [2] (strain range 15-20%), 43%; in series [2] (strain range 20-25%) it was 104%. Also, the “Percentage Change in Modulus Compared to Control” value in series [2] (strain range 5-10%) was 22%; in series [2] (strain range 10-15%), 29%; in series [2] (strain range 15-20%) it was 28%; in series [2] (strain range 20-25%) it was 38%. Moreover, the “effect on stiffness of corneal tissue vs untreated control eye” value in series [2] (3 days, lower strain ranges (5-10% & 10-15%)) is on record as “No significant difference; also recorded: insignificant effect”; in series [2] (28 days, lowest and highest strain ranges), “No significant difference”.
